Values of other authors, collected in patent US12357587B2, “Cannabinoid monoterpene based pharmaceutical topical composition for musculoskeletal pain” (MOUNTAIN VALLEY MD INC., priority 2022, dated 2025).

Key:
[1] = purified compound; rat chronic constriction injury

SMILES	decrease in white blood cell count (observed in 7% of patients, usually reversed within the first 4 months of therapy)	increase in the risk of blood dyscrasias (patients taking carbamezepine)	patients with a 25% decrease in white blood cell count (usually reversed within the first 4 months of therapy)	relief of neuropathic pain [1]
NC(=O)N1c2ccccc2C=Cc2ccccc21 [carbamezepine]	25%	five- to eight	7%	–
C=C(C)[C@@H]1CCC(C)=C[C@H]1c1c(O)cc(CCCCC)cc1O [cannabidiol (CBD), cannabidiol]	–	–	–	partially relieved neuropathic pain
